According to paper PMC2658777, “Prodrugs of Fluoro-Substituted Benzoates of EGC as Tumor Cellular Proteasome Inhibitors and Apoptosis Inducers” (International Journal of Molecular Sciences, 2008):

What was measured:
[1] = molecular target: T1, purified rabbit 20S proteasome (chymotrypsin-like activity) (Oryctolagus cuniculus, UniProt G1T4Q9); experiment: Inhibition of the chymotrypsin-like activity of a purified 20S proteasome; assay type: biochemical; details: fluorogenic substrate, 2 h incubation
T1 construct: purchased Boston Biochem
T1 sequence (G1T4Q9 1-263): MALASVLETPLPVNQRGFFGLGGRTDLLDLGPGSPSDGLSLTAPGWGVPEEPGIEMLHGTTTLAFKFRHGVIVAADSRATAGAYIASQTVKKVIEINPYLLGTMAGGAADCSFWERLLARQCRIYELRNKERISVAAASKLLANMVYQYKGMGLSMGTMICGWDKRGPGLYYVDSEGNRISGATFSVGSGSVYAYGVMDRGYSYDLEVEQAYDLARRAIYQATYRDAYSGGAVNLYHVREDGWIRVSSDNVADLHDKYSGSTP
Protocol: We first tested the effect of these compounds on inhibiting the chymotrypsin-like activity of a purified 20S proteasome using purified EGCG as a positive control. Each of these compounds was incubated with a purified rabbit 20S proteasome and a fluorogenic substrate for chymotrypsin-like activity for 2 h. The half-maximal inhibitory concentration or IC50 was then determined.
Highly purified (-)-EGCG and dimethyl sulfoxide (DMSO) were purchased from Sigma-Aldrich. Purified 20S proteasome (rabbit) was purchased from Boston Biochem. Fluorogenic peptide substrate Suc-Leu-Leu-Val-Tyr-AMC (for the proteasomal chymotrypsin-like activity) was obtained from Calbiochem. Polyclonal antibody to ubiquitin, IκB-α̣ monoclonal anti-actin, anti-goat, anti-rabbit, and anti-mouse IgG-horseradish peroxidase were obtained from Santa Cruz Biotechnology Inc. Mouse monoclonal anitbody against human poly(ADP-ribose) polymerase (PARP) was purchased from Biomol International LP (Plymouth Meeting, PA). RPMI 1640, Penicillin and streptomycin were purchased from Invitrogen.

[2] = tested on: Human leukemia Jurkat T cells; experiment: Trypan blue dye exclusion cell death assay; assay type: cell-based; details: 50 μM, 24 h
Protocol: We first tested whether these Pro-F-EGCGs could induce cell death in tumor cells. Human leukemia Jurkat T cells were treated with 50 μM of each analog for 24 h, followed by Trypan-blue exclusion assay. Blue cells and cells with apoptosis-associated morphological changes (shrunken, blebbing, etc) were scored as dead cells. Pro-EGCG (1) and DMSO were used as controls.
The Trypan blue dye exclusion assay was performed by mixing 20 μL of cell suspension with 20 μL of 0.4% Trypan blue dye before injecting into a hemocytometer and counting. The number of cells that absorbed the dye and those that exclude the dye were counted, from which percentage of nonviable cell number over the total cell number was calculated.
(§1) Human leukemia Jurkat T cells were cultured in RPMI 1640 medium supplemented with 10% fetal calf serum, 100 units/mL of penicillin, and 100 μg/mL of streptomycin. Cells were maintained at 37 °C in a humidified incubator with an atmosphere of 5% CO2. Jurkat T cells were treated by selected compounds at various concentrations for indicated hours (see figure legends for details), and a whole-cell extract was then prepared as described previously. Briefly, cells were harvested, washed with PBS, and homogenized in a lysis buffer (50 mM, Tris-HCl, pH 8.0, 150 mM NaCl, 0.5% NP-40, 0.5 mM penylmethylsulfonyl fluoride, and 0.5 mM dithiothreitol) at 4 °C. Afterwards, the lysates were centrifuged at 12,000 × g for 15 min at 4 °C and the supernatants collected as whole-cell extracts.

Jurkat T cells = experiment: Western blot of ubiquitinated IκB-α (p56), ubiquitinated proteins and PARP cleavage; assay type: cell-based, human; details: for p56 IκB-α (ubiquitinated form), Western blot: 50 μM; for accumulation of ubiquitinated proteins, Western blot: Jurkat T cells, 10, 25 or 50 μM
Protocol: (§2) To study whether the induction of cell death by Pro-F-EGCG4 was due to its proteasome-inhibitory and apoptosis-inducing activities, Jurkat T cells were treated with 50 μM of Pro-F-EGCG4 and Pro-EGCG (1) as a control for 4, 8 and 24 h, followed by measurement of proteasome inhibition and apoptotic cell death. […] Previously, we reported that the p56 is an ubiquitinated form of IκB-α protein as a marker of proteasome inhibition, as verified by the immunoprecipitation-Western blot assay. […] Consistently, PARP cleavage fragment p85 was detected in Jurkat T cells treated with Pro-F-EGCG4 in a time-dependent manner (Fig. 3B). A p65 PARP fragment was also detected in cells treated with Pro-F-EGCG4 (Fig. 3B), indicating calpain activation occurred as well [14]. Apoptotic morphological changes were observed after 4 hours of treatment with Pro-F-EGCG4 (data not shown).
as §1
Analysis of IκB-α, PARP, and ubiquitinated proteins was performed using monoclonal or polyclonal antibodies, according to previously reported protocols.

[3] = tested on: proteasomal chymotrypsin (CT)-like activity in Jurkat T cells; experiment: Cellular proteasomal chymotrypsin-like activity in extracts of treated cells; assay type: cell-based, human
Protocol: as §2
We then performed a dose-dependent experiment. Jurkat T cells were treated with Pro-F-EGCG4 or Pro-EGCG (1) at 10, 25, or 50 μM for 24 h, followed by measurement of proteasome inhibition and apoptotic cell death.
as §1
Human leukemia Jurkat T cells were treated with each compound at indicated concentration for indicated hours (see the figure legends for details), harvested, and lysed as described previously. Whole cell extracts were prepared as detailed in section 3.4, aliquoted and kept at −80 °C. One of the aliquots was used for determination of protein concentration. After that, whole cell extracts (10 μg) from each preparation were incubated with Suc-Leu-Leu-Val-Tyr-AMC (20 μM) fluorogenic substrate at 37°C in 100 μl of assay buffer (50 mM Tris-HCL, pH 7.5) for 2 h. After incubation, production of hydrolyzed 7-amino-4-methylcoumarin (AMC) groups was measured using a Victor^3 Multilabel Counter with an excitation filter of 380 nm and an emission filter of 460 nm (PerkinElmer, Boston, MA, USA).

[4] = tested on: human breast cancer xenografts; design: method as in PMID 17483343; details: human breast cancer xenografts in mice; cited from earlier work
[5] = tested on: caspase-3/7 activities in Jurkat T cells; experiment: Caspase-3/7 activity in extracts of treated cells; assay type: cell-based, human; details: 50 μM, 24 h (dose-dependent experiment)
Protocol: as §2
Human leukemia Jurkat T cells were cultured in RPMI 1640 medium supplemented with 10% fetal calf serum, 100 units/mL of penicillin, and 100 μg/mL of streptomycin. Cells were maintained at 37 °C in a humidified incubator with an atmosphere of 5% CO2. […]
Cells were treated with each compound at indicated concentration for indicated hours, harvested, and lysed as described previously. Ac-DEVD-AMC (40 μM) was then incubated with the prepared cell lysates for 2 h and the caspase-3 activity was measured as described previously.

[6] = design: method as in PMID 17477351; details: in vitro; cited from earlier work
[7] = Jurkat T cells, 50 μM, 4, 8 and 24 h
[8] = Jurkat T cells, 10, 25 or 50 μM, 24 h

O=C(O[C@@H]1Cc2c(O)cc(O)cc2O[C@@H]1c1cc(O)c(O)c(O)c1)c1ccccc1F [F-EGCG1, (-)-(2R, 3R)-5,7-dihydroxy-2-(3,4,5-trihydroxyphenyl)chroman-3-yl 2-fluorobenzoate]
IC50 [1]: 1250 nM

O=C(O[C@@H]1Cc2c(O)cc(O)cc2O[C@@H]1c1cc(O)c(O)c(O)c1)c1cccc(F)c1 [F-EGCG2]
IC50 [1]: 840 nM

O=C(O[C@@H]1Cc2c(O)cc(O)cc2O[C@@H]1c1cc(O)c(O)c(O)c1)c1ccc(F)c(F)c1 [F-EGCG4]
IC50 [1]: 650 nM

CC(=O)Oc1cc(OC(C)=O)c2c(c1)O[C@H](c1cc(OC(C)=O)c(OC(C)=O)c(OC(C)=O)c1)[C@H](OC(=O)c1ccccc1F)C2 [Pro-F-EGCG1, (-)-(2R, 3R)-5,7-Diacetoxy-2-(3,4,5-triacetoxyphenyl)chroman-3-yl 2-fluorobenzoate]
cell death (dead cells over total cell population) [2]: 44%

O=C(O[C@@H]1Cc2c(O)cc(O)cc2O[C@@H]1c1cc(O)c(O)c(O)c1)c1cc(O)c(O)c(O)c1 [(-)-EGCG, (-)-epigallocatechin-3-gallate, reference compound]
IC50 [1]: 680 nM

CC(=O)Oc1cc(OC(C)=O)c2c(c1)O[C@H](c1cc(OC(C)=O)c(OC(C)=O)c(OC(C)=O)c1)[C@H](OC(=O)c1cc(OC(C)=O)c(OC(C)=O)c(OC(C)=O)c1)C2 [Pro-EGCG (1), reference compound]
p56 IκB-α (ubiquitinated form), Western blot (Jurkat T cells; Jurkat T cells, all the time points (4, 8, 24 h)): increased level
accumulation of ubiquitinated proteins, Western blot (Jurkat T cells; 24 h): accumulation of ubiquitinated proteins
proteasomal CT-like activity in treated cells [3, 7]: decrease in the level of the proteasomal CT-like activity in a time-dependent manner
proteasomal CT-like activity in treated cells [3, 8]: showed inhibition
anti-tumor activity compared with natural EGCG [4]: greater anti-tumor activity
caspase 3/7 activity, induction [5]: 6 fold
cell death (dead cells over total cell population) [2]: ~ 70%
cellular permeability and stability compared with natural EGCG [6]: significantly enhanced

CC(=O)Oc1cc(OC(C)=O)c2c(c1)O[C@H](c1cc(OC(C)=O)c(OC(C)=O)c(OC(C)=O)c1)[C@H](OC(=O)c1ccc(F)cc1)C2 [Pro-F-EGCG3, (-)-(2R, 3R)-5,7-Diacetoxy-2-(3,4,5-triacetoxyphenyl)chroman-3-yl 4-fluorobenzoate]
cell death (dead cells over total cell population) [2]: 30%

CC(=O)Oc1cc(OC(C)=O)c2c(c1)O[C@H](c1cc(OC(C)=O)c(OC(C)=O)c(OC(C)=O)c1)[C@H](OC(=O)c1cccc(F)c1)C2 [Pro-F-EGCG2, (-)-(2R, 3R)-5,7-Diacetoxy-2-(3,4,5-triacetoxyphenyl)chroman-3-yl 3-fluorobenzoate]
cell death (dead cells over total cell population) [2]: 90%

CC(=O)Oc1cc(OC(C)=O)c2c(c1)O[C@H](c1cc(OC(C)=O)c(OC(C)=O)c(OC(C)=O)c1)[C@H](OC(=O)c1ccc(F)c(F)c1)C2 [Pro-F-EGCG4, (-)-(2R,3R)-5,7-Diacetoxy-2-(3,4,5-triacetoxyphenyl)chroman-3-yl 3,4-difluorobenzoate]
PARP cleavage fragment p85, Western blot (Jurkat T cells; [7]): detected
p56 IκB-α (ubiquitinated form), Western blot (Jurkat T cells; Jurkat T cells, 4 or 8 h): induced the appearance
p56 IκB-α (ubiquitinated form), Western blot (Jurkat T cells; Jurkat T cells, 24 h): not detected
accumulation of ubiquitinated proteins, Western blot (Jurkat T cells; 24 h): caused accumulation of ubiquitinated proteins in a dose-dependent manner
proteasomal CT-like activity in treated cells [3, 7]: decreased level
proteasomal CT-like activity in treated cells [3, 8]: inhibited the proteasomal CT-like activity in a dose-dependent manner
cell death (dead cells over total cell population) [2]: 90%

O=C(O[C@@H]1Cc2c(O)cc(O)cc2O[C@@H]1c1cc(O)c(O)c(O)c1)c1ccc(F)cc1 [F-EGCG3]
IC50 [1]: 1900 nM
